Tests used:
[1] = test system: RPTEC/TERT1 cells; test: Cathepsin D immunofluorescence (KE2, disruption of lysosomes); assay type: cell-based, human
Protocol: For immunocytochemistry experiments, cells were seeded into 8-well chamber slides (Ibidi) at a density of 140 cells per µL in 300 µL growth medium and were allowed to grow for 48 h (NRK-52E) or 10 d (RPTEC/TERT1) respectively. For treatment, stock solutions (1,000 µM) of compounds dissolved in growth medium were freshly prepared and serial dilutions were made before exposure of cells for 24 h. After treatment, cells were washed twice with 150 µL PBS and fixed with 150 µL 4% paraformaldehyde in 1 x PBS for 10 min at room temperature. […]
After incubation with primary antibody, cells were washed three times for 15 min with 0.2% Tween in 1 x PBS (150 µL) on an orbital shaker. […] To preserve fluorescence 50–100 µL DAPI mounting medium (Vectashield®; Vectorlab, Biozol) was added to the cells and chamber slides were stored at 4°C in the dark until image acquisition.
Images were taken with a TCS SP5 II confocal microscope with an HCX PL APO lambda blue 63.0 × 1.40 OIL UV objective (Leica Microsystems, Wetzlar, GER) (n = 10 cells/treatment group). […] Before quantification, images were blinded and randomized. Quantification of fluorescence intensity was performed using NIH Image® software. […] The mean values of the pixel intensities were automatically calculated by the software and imported in Excel for further processing.

[2] = test system: RPTEC/TERT1 and NRK-52E cells; test: In vitro key event assays (LAMP-1/2, cathepsin D, cell viability) compared across both cell models; assay type: cell-based, human and rat
Protocol: Cells were plated into 96-well tissue culture plates (10,000 cells per well) and were allowed to grow for 48 h (NRK-52E) respectively 10 d (RPTEC/TERT1) prior to 24 h treatment with model stressors. Stock solution for each compound (2000 µM) was prepared in growth medium and serial dilutions (1:1) were made before each experiment. At the end of the 24 h treatment, cell viability was measured using the CellTiter-Glo® assay (Promega). CellTiter-Glo® reagents and buffer were mixed under light-protected conditions and 100 µL CellTiter-Glo® solution was added directly to each well followed by 2 min incubation on an orbital shaker and 10 min incubation at room temperature in the dark to stabilize the luminescence signal. The suspension was mixed via pipetting and 50 µL were transferred into white 96-well plates (PerkinElmer Inc.). The luminescence signal was measured on a multiplate reader (Mithras LB 940; Berthold). Each assay was performed in three independent experiments carried out in triplicates.
For immunocytochemistry experiments, cells were seeded into 8-well chamber slides (Ibidi) at a density of 140 cells per µL in 300 µL growth medium and were allowed to grow for 48 h (NRK-52E) or 10 d (RPTEC/TERT1) respectively. For treatment, stock solutions (1,000 µM) of compounds dissolved in growth medium were freshly prepared and serial dilutions were made before exposure of cells for 24 h. After treatment, cells were washed twice with 150 µL PBS and fixed with 150 µL 4% paraformaldehyde in 1 x PBS for 10 min at room temperature. After fixation, cells were washed 10 min with 150 µL PBS on an orbital shaker followed by permeabilization with 150 µL 0.2% Triton X-100 in 1 x PBS for 5 min at room temperature on an orbital shaker. The permeabilized cells were washed twice with 1 x PBS (150 µL) for 10 min at room temperature on an orbital shaker and then incubated with 150 µL 5% BSA dissolved in 1 x PBS for 1 h at room temperature to block unspecific binding sites. After blocking, 100 µL primary antibody diluted 1:100 in 1% BSA in 1 x PBS were directly pipetted onto the cells and incubated overnight at 4°C. The following antibodies were employed for NRK-52E cells: Anti-LAMP-1 monoclonal IgG1 kappa mouse antibody (Santa Cruz; sc-20011), anti-Cathepsin D mouse monoclonal IgG2 kappa antibody (Santa Cruz; sc-377124); for RPTEC/TERT1 cells: Anti-LAMP-2 monoclonal mouse antibody (Santa Cruz; sc-18822), anti-Cathepsin D mouse monoclonal IgG2b kappa (Novus Biologicals; NBP1-04278); for both cell lines anti-megalin mouse monoclonal IgG1 antibody (Santa Cruz, sc-515772).
After incubation with primary antibody, cells were washed three times for 15 min with 0.2% Tween in 1 x PBS (150 µL) on an orbital shaker. Cells were incubated for 1 h at room temperature with 100 µL CFL 488-conjugated mouse IgG kappa binding protein (1:50) (m-IgGκ BP-CFL 488; Santa Cruz, sc-516176). After incubation the cells were washed three times for 15 min with 0.2% Tween in 1 x PBS on an orbital shaker and once with 150 µL sterile water. Phalloidin-tetramethylrhodamine B isothiocyanate (TRITC) was used to stain the cytoskeleton and was diluted in 100% methanol to a stock concentration of 0.1 mg/ml and further diluted in 1 x PBS to a working concentration of 0.095 µM. After cells were washed once with 1 x PBS for 10 min at room temperature 150 µL phalloidin-TRITC working solution was added and the cells were incubated on an orbital shaker at room temperature for 60–90 min. After incubation, phalloidin-TRITC solution was aspirated, and the cells were washed once with 1 x PBS. Chamber slides were allowed to dry for 15 min at room temperature. To preserve fluorescence 50–100 µL DAPI mounting medium (Vectashield®; Vectorlab, Biozol) was added to the cells and chamber slides were stored at 4°C in the dark until image acquisition. […]

Substance: Polymyxin B
- BMC10, KE2 ([1]; in vitro POD from KE dose-response, cathepsin D intensity, RPTEC/TERT1, 24 h treatment, n = 3): 6.8 µM
- MOE, KE2 ([1]; margin of exposure: BMC10 in RPTEC/TERT1 vs human plasma/serum concentration (cmax or css)): 1.7 - 11.9
- Cytotoxicity compared between RPTEC/TERT1 and NRK-52E cells ([2]; 24 h treatment, cell viability): RPTEC/TERT1 cells were found to be significantly more sensitive
- Rank order of effects of the 3 polymyxin derivatives across all KEs ([2]; RPTEC/TERT1 and NRK-52E, 24 h): most active
- Effect on cathepsin D fluorescence intensity (KE2) ([2]; RPTEC/TERT1 and NRK-52E, 24 h, immunocytochemistry, quantitative image analysis): concentration-dependent decrease in fluorescence intensity
- Effect on LAMP-1/2 expression (KE1) ([2]; RPTEC/TERT1 and NRK-52E, 24 h, immunofluorescence image analysis): significant, concentration-dependent increase in LAMP-1/2 expression
- Effect on cell viability / cytotoxicity (KE3) ([2]; RPTEC/TERT1 and NRK-52E, 24 h treatment, CellTiter-Glo): concentration-dependent decrease in cell viability

From paper PMC9061999, “Application of the Adverse Outcome Pathway Concept to In Vitro Nephrotoxicity Assessment: Kidney Injury due to Receptor-Mediated Endocytosis and Lysosomal Overload as a Case Study” (Frontiers in Toxicology, 2022)
